Values belong to the compound of their own block, whether it stands above or below them. The source made the active and inactive calls.
Experiments:
[1] = Luminescence Cell-Based Dose Confirmation HTS to Identify Inhibitors of Platelet Dense Granule Release. [Related pubchem assays: 1663 (Primary HTS), 1678 (Summary of Project)]; format: functional
BJ [2] = assay: cells; format: functional, cell-based; conditions: Homo sapiens
[3] = DRD fibroblast viability loss – cell-based, non-viral oncogenic, luminescence, dose response (AID 1934); format: functional; conditions: Homo sapiens
[4] = biological target: Luciferin 4-monooxygenase (Photinus pyralis, UniProt P08659); assay: inhibition of purified Photinus pyralis luciferase – biochemical, luminescence, dose response (AID 1891)
HEK293 = assay: EBV LMP1 TES2 canonical NF-kB signalling blockers – cell-based, HEK293, luciferase, cherry-pick, dose response (AID 588343); format: functional; conditions: Homo sapiens
BJ [5] = assay: BJ-TERT-LT-ST fibroblast viability loss – cell-based, RAS-independent, luminescence, dose response (AID 1935); format: functional; conditions: Homo sapiens;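 further: BJ fibroblasts immortalized with TERT plus LT and ST oncogenes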
BJ [6] = assay: BJ-TERT fibroblast viability loss – cell-based, RAS-independent, luminescence, dose response (AID 1933); format: functional; conditions: Homo sapiens
Cytochrome P450 3A4 = Cytochrome P450 3A4 (Homo sapiens, UniProt P08684);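 further: CYP3A4 tested as one member of a cytochrome P450 panel screen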
Cytochrome P450 1A2 = biological target: T1, Cytochrome P450 1A2 (Homo sapiens, UniProt P05177);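 further: PubChem cytochrome P450 panel assay, CYP1A2 panel member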
T1 sequence (P05177 whole entry): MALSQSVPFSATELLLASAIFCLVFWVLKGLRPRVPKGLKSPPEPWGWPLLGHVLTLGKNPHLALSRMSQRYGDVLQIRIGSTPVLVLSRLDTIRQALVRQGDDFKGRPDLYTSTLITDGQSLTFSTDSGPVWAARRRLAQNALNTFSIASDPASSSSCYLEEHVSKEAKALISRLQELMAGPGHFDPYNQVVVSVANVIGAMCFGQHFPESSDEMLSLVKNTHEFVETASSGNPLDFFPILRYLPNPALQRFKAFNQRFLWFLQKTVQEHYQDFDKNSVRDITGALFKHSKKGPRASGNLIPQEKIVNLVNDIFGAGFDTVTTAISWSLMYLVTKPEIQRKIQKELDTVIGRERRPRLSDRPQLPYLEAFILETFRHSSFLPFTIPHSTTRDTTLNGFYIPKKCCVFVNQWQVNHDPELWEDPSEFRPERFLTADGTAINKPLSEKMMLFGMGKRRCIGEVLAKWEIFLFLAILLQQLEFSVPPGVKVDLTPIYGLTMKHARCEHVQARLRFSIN

Cytochrome P450 2C9 = Cytochrome P450 2C9 (Homo sapiens, UniProt P11712)
Cytochrome P450 2C19 = Cytochrome P450 2C19 (Homo sapiens, UniProt P33261); assay: Cytochrome panel assay with activity outcomes. Panel member name: p450-cyp2c19 Compounds with AC50 equal or less than 10 uM are considered active; format: functional
H9c2 = assay: cells; format: functional, cell-based; conditions: Rattus norvegicus, H9c2, Myocardium;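 further: confirmatory concentration-response retest of ultra-high-throughput screening hits for modulation of myocardial damage; cell death induced by hydrogen peroxide oxidative stress; compound pretreatment for 60 min then peroxide exposure for 2 h; potency is for protecting the cells against peroxide damage rather than for killing them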

Cytochrome P450 2C9, sequence (P11712 whole entry): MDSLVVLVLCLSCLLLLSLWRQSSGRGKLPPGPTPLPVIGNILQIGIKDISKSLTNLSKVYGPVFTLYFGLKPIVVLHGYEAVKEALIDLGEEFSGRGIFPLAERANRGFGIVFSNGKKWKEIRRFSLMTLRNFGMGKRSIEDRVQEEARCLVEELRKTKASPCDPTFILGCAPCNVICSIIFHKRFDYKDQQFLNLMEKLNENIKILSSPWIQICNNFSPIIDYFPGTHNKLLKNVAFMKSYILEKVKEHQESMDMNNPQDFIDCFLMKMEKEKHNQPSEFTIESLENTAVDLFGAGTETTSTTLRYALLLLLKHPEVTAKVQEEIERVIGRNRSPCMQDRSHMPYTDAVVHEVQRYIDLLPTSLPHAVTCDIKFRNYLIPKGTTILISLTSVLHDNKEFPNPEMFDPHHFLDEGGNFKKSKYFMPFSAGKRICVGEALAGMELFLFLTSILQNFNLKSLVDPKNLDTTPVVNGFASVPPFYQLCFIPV
Cytochrome P450 2C19, sequence (P33261 whole entry): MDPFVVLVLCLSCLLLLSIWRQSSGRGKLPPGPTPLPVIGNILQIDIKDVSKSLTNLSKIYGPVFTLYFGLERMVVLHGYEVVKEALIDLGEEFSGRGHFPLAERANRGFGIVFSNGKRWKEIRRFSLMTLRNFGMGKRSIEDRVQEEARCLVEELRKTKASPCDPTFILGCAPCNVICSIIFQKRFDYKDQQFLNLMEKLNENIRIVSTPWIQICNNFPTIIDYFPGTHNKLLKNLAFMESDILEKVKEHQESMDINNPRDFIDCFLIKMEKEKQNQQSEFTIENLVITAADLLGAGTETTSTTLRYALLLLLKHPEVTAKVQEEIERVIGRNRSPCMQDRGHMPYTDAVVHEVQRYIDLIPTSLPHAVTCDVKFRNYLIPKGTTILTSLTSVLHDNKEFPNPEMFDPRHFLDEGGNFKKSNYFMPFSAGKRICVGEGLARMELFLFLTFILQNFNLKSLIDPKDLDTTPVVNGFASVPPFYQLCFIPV
Luciferin 4-monooxygenase, sequence (P08659 whole entry): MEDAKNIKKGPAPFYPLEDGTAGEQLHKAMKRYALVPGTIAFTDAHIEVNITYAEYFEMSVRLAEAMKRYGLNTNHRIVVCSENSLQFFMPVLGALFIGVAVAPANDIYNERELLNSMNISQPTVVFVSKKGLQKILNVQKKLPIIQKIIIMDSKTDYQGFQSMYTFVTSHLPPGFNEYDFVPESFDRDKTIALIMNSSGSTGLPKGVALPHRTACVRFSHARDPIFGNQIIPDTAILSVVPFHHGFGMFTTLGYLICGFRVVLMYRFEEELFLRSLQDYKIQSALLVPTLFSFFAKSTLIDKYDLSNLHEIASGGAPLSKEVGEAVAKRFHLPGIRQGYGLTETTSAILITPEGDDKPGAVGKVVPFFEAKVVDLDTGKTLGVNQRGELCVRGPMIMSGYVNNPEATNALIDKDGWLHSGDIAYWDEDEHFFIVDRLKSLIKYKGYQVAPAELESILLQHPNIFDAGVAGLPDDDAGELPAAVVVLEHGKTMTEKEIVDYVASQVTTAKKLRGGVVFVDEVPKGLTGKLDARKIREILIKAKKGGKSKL
Cytochrome P450 3A4, sequence (P08684 whole entry): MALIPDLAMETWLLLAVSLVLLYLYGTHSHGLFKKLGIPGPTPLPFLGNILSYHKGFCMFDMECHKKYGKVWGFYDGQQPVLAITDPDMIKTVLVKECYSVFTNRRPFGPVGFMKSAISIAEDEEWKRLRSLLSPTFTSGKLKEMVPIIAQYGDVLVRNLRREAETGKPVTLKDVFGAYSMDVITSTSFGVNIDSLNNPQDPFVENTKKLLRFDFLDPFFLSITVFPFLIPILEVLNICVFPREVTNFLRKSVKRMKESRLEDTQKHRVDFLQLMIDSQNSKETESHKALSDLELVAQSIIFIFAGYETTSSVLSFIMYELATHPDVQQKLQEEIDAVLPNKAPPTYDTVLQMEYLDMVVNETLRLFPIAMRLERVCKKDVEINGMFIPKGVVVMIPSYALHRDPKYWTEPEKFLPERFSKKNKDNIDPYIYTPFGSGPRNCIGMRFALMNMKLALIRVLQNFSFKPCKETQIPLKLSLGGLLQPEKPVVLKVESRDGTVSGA

SMILES: O=C(Nc1ccc(N2CCOCC2)cc1)c1cn2ccccc2n1
- EC50 [1]: 3.25 µM (active)
- EC50 (BJ [2]): 11.1 µM (active)
- EC50 [3]: 12.1 µM (active)
- EC50 [4]: 4.45 µM (active)
- AC50 (HEK293): 3.09 µM (active)
- EC50 (BJ [5]): > 150 µM (inconclusive)
- EC50 (BJ [6]): 12.3 µM (active)

- AC50 (Cytochrome P450 3A4): 7.08 µM (inconclusive)
- AC50 (Cytochrome P450 1A2): 12.6 µM (inconclusive)
- AC50 (Cytochrome P450 2C9): inconclusive
- AC50 (Cytochrome P450 2C19; read-out: AC50): 2 µM (inconclusive)
SMILES: CCc1ccccc1NC(=O)c1nnn(CC(=O)Nc2cccc(C)c2C)c1N

- AC50 (Cytochrome P450 1A2): 31.6 µM (inconclusive)
- AC50 (Cytochrome P450 2C9): inconclusive
- AC50 (Cytochrome P450 2C19): inconclusive
SMILES: O=C(Nc1ncc(Cc2cccc(Cl)c2)s1)C1=NCCN1

SMILES: COc1ccc(CSc2nc(O)c3ccccc3n2)cc1F
- IC50 (H9c2): > 79 µM (inactive)

SMILES: COc1ccc(N(C(=O)c2cccc([N+](=O)[O-])c2)S(=O)(=O)c2cccs2)cc1
- IC50 (H9c2): > 79 µM (inactive)

SMILES: N#Cc1c(Oc2ccc3ccccc3c2)sc(C(=O)c2ccccc2)c1N
- AC50 (HEK293): 26.7 µM (active)

SMILES: O=C1C2C3C=CC(CC3)C2C(=O)N1c1cccc(Br)c1 (stereo not drawn)
- IC50 (H9c2): > 79 µM (inactive)

From ChEMBL document CHEMBL1201862, “PubChem BioAssay data set” (2004)
